According to ChEMBL document CHEMBL1201862, “PubChem BioAssay data set” (2004):
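Five concentrations, 48 hours, 96-well plates. At the GI50, growth is halved.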 Active and inactive are the calls of the source. No stated cut-off is given here; in the data, active = GI50 up to about 1.1 µM and inactive = higher.

Legend:
Test in all cases: NCI-60 cell line screen, 48 h
[1] = system: 786-0
[2] = system: ACHN
[3] = system: COLO 205
[4] = system: HCC 2998
[5] = system: KM12
[6] = system: NCI-H460
[7] = system: OVCAR-8
[8] = system: RPMI-8226
[9] = system: SF-268
[10] = system: SF-295
[11] = system: SF-539
[12] = system: SK-MEL-28
[13] = system: SK-OV-3
[14] = system: SNB-19
[15] = system: TK-10
[16] = system: UO-31
[17] = system: SR

Measured: GI50

CC(C)(C)C(C#N)(C#N)c1ccc(C(C#N)(C#N)C(C)(C)C)nn1
inactive: [1] 74 µM | [2] 82 µM | [3] > 100 µM | [4] > 100 µM | [5] > 100 µM | [6] > 100 µM | [7] > 100 µM | [8] > 100 µM | [9] 86.7 µM | [10] > 100 µM | [11] > 100 µM | [12] > 100 µM | [13] 41.3 µM | [14] 63.4 µM | [15] > 100 µM | [16] > 100 µM

CCCCN(CCCC)CC(C(=O)Nc1ccc([N+](=O)[O-])cc1[N+](=O)[O-])/C(C)=N\NC(=O)c1ccncc1 (stereo unspecified)
inactive: [1] > 100 µM | [2] > 100 µM | [3] > 100 µM | [4] > 100 µM | [6] > 100 µM | [7] > 100 µM | [8] > 100 µM | [9] > 100 µM | [10] > 100 µM | [11] > 100 µM | [12] > 100 µM | [13] > 100 µM | [14] > 100 µM | [15] > 100 µM | [16] > 100 µM

O=C(CCc1nnc(S)[nH]1)Nc1cc(Cl)c(Cl)cc1Cl
inactive: [1] > 100 µM | [2] > 100 µM | [3] > 100 µM | [4] > 100 µM | [5] > 100 µM | [6] > 100 µM | [7] > 100 µM | [8] > 100 µM | [9] > 100 µM | [10] > 100 µM | [11] > 100 µM | [12] > 100 µM | [13] > 100 µM | [14] > 100 µM | [15] > 100 µM | [16] > 100 µM

COc1ccc(CNc2nc3c(NC(C)=O)cc(C(F)(F)F)cc3nc2-c2ccccc2)cc1OC
inactive: [1] 37.1 µM | [3] > 100 µM | [4] > 100 µM | [5] > 100 µM | [6] > 100 µM | [7] 56.8 µM | [8] 68.5 µM | [9] 5.68 µM | [10] 50 µM | [11] 25.2 µM | [12] 19 µM | [13] 40.7 µM | [14] 45.6 µM | [15] 32.1 µM | [16] 7.45 µM

CN(C(=O)c1ccc(Cl)cc1)C(=S)N1CCN(c2ccccn2)CC1
inactive: [1] > 100 µM | [2] > 100 µM | [3] > 100 µM | [5] > 100 µM | [6] > 100 µM | [7] > 100 µM | [8] > 100 µM | [9] > 100 µM | [10] > 100 µM | [11] > 100 µM | [12] > 100 µM | [13] > 100 µM | [14] > 100 µM | [17] > 100 µM | [15] > 100 µM | [16] > 100 µM

Cc1ccc(/C=C/C(=O)c2sc(C(N)=S)nc2C)cc1
inactive: [1] > 100 µM | [2] > 100 µM | [3] > 100 µM | [4] > 100 µM | [5] > 100 µM | [6] > 100 µM | [7] > 100 µM | [8] > 100 µM | [9] > 100 µM | [10] > 100 µM | [11] > 100 µM | [12] > 100 µM | [13] > 100 µM | [15] > 100 µM | [16] > 100 µM

COc1ccccc1NC(=O)CC(=O)N/N=C/c1ccc(N(CCC#N)S(=O)(=O)c2ccccc2)cc1
inactive: [1] > 100 µM | [2] > 100 µM | [3] > 100 µM | [4] > 100 µM | [5] > 100 µM | [6] > 100 µM | [7] > 100 µM | [8] > 100 µM | [9] > 100 µM | [10] > 100 µM | [12] > 100 µM | [14] > 100 µM | [17] > 100 µM | [15] > 100 µM | [16] > 100 µM

Nc1ccn(CCNCCn2cnc3nc(N)[nH]c(=O)c32)c(=O)n1
inactive: [1] > 100 µM | [2] > 100 µM | [3] > 100 µM | [4] > 100 µM | [5] > 100 µM | [6] > 100 µM | [7] > 100 µM | [8] > 100 µM | [9] > 100 µM | [10] > 100 µM | [11] > 100 µM | [12] > 100 µM | [14] > 100 µM | [17] > 100 µM | [15] > 100 µM | [16] > 100 µM

COc1ccc(-c2c(N)[n+]([O-])c3ccccc3[n+]2[O-])cc1OC
inactive: [1] > 100 µM | [2] > 100 µM | [3] > 100 µM | [5] > 100 µM | [6] > 100 µM | [7] > 100 µM | [8] > 100 µM | [9] > 100 µM | [10] > 100 µM | [11] > 100 µM | [12] > 100 µM | [13] > 100 µM | [14] > 100 µM | [17] > 100 µM | [16] > 100 µM

C[n+]1c2n(c3nc(N)[nH]c(=O)c31)C1OC(C2)C(O)C1O (stereo unspecified)
inactive: [1] > 100 µM | [2] > 100 µM | [3] > 100 µM | [4] > 100 µM | [5] > 100 µM | [7] > 100 µM | [9] > 100 µM | [10] > 100 µM | [11] > 100 µM | [12] > 100 µM | [13] > 100 µM | [14] > 100 µM | [17] > 100 µM | [15] > 100 µM | [16] > 100 µM

Cc1ccc(C(c2c(O)c3ccccc3n(-c3ccccc3)c2=O)c2c(O)c3ccccc3n(-c3ccccc3)c2=O)cc1
inactive: [1] 38.1 µM | [2] 89.3 µM | [3] > 100 µM | [4] > 100 µM | [5] > 100 µM | [8] > 100 µM | [9] 82.2 µM | [11] > 100 µM | [12] > 100 µM | [14] > 100 µM | [17] 62.4 µM | [15] > 100 µM | [16] > 100 µM

CCOP(=O)(OCC)C(C(=O)OC)C(=O)C(=O)Nc1cccc([N+](=O)[O-])c1 (stereo unspecified)
inactive: [1] > 100 µM | [2] > 100 µM | [3] > 100 µM | [4] > 100 µM | [5] > 100 µM | [6] > 100 µM | [7] > 100 µM | [9] > 100 µM | [10] > 100 µM | [11] > 100 µM | [12] > 100 µM | [13] > 100 µM | [14] > 100 µM | [17] > 100 µM | [15] > 100 µM | [16] > 100 µM

O=C1CCCC/C1=C\c1ccc(Cl)c(Cl)c1
inactive: [1] > 10 µM | [2] 18.3 µM | [3] 35.1 µM | [4] 21.7 µM | [6] 20.1 µM | [7] 23.6 µM | [9] 23.3 µM | [11] 17.2 µM | [12] 19.1 µM | [13] 45.8 µM | [14] 25.8 µM | [15] 17 µM | [16] 17.8 µM
